Results as given in publication PMC10650486, “Fluoroquinolone-Based Organic Salts (GUMBOS) with Antibacterial Potential” (International Journal of Molecular Sciences, 2023).
“Also recorded” adds a separate entry of the source.

Assays:
[1] = Octanol/water partition coefficient, shake-flask method; assay type: physicochemical; settings: for logKO/W ± SD: octanol/water, shake-flask, mean ± standard deviation
Experimental: Following synthesis and structural characterization of FQ-based GUMBOS, octanol/water partition coefficient (Ko/w) values were obtained through a shake-flask method with minor modifications. Initially, water and 1-octanol were saturated by agitation for 24 h at room temperature. GUMBOS were solubilized in 5 mL of water-saturated octanol (Ci), to which an equivalent volume of octanol-saturated water was added. This solution subjected to 24 h of agitation and the absorbance of the upper layer was measured at a wavelength of 280 nm. Sample concentration in octanol (Co) was determined through a calibration curve, which was created using six solutions of different concentrations (4–30 μmol·L^−1) of GUMBOS in 1-octanol. Later, GUMBOS concentration in water (Cw) were obtained by the following equation Ci − C0 = Cw. Octanol/water partition coefficient (Ko/w) values were then calculated using Ko/w = Co/Cw. Data were representative of three replicates executed for each of the GUMBOS.

[2] = Thermogravimetric analysis (TGA), thermal stability; assay type: physicochemical; settings: for Tonset / Tpeak / Tstart: 10 °C min^−1, N2 atmosphere; for Residue at 500 °C: mass residue remaining at 500 °C; for Tpeak: temperature at highest degradation rate; for Tstart: temperature where weight loss starts
Experimental: Thermogravimetric analysis (TGA) was executed using a Hi-Res modulated TGA 2950 thermogravimetric analyzer (TA Instruments, New Castle, DE, USA) and curves were obtained for all GUMBOS. Approximately 1-3 mg of GUMBOS was placed in a platinum pan and heated from 25 °C to 575 °C at a slow heating rate of 10 °C min^-1. Some characteristic parameters were extrapolated. For DSC and TGA, onset temperatures (Tonset) were determined as the temperature value matching the intersection point of the extrapolated initial baseline and the tangent or line through the linear section of the leading edge of the Tpeak point where the Tpeak was the temperature value at the highest degradation rate. For TGA, additional data were collected such as the temperature value where weight loss starts ([…]), and the percentage of mass residue remaining at 500 °C which allows evaluation of the short-term stability. All these parameters were extrapolated using the software NETZSCH Proteus® version 6.1081 (Netzsch-Gerätebau GmbH, Selb, Germany) for DSC analysis and Universal Analysis 2000 version 4.5A (TA Instruments-Waters LLC, New Castle, DE, USA) for TGA analysis.

[3] = test system: Staphylococcus aureus subsp. aureus Rosenbach ATCC 25923; experiment: Antibacterial susceptibility testing, broth microdilution, bacterial growth by absorbance at 630 nm; assay type: cell-based
Experimental: To evaluate the antimicrobial profile, a study was performed using the broth microdilution standard method with minor modifications using DMSO as solvent. Standard laboratory strains of Gram-positive Staphylococcus aureus subsp. aureus Rosenbach ATCC 25923 and Gram-negative Escherichia coli O157:H7 were studied. TSB was used as the culture medium for bacteria and samples with bacteria in media were considered positive controls.
Antibacterial activity of GUMBOS was evaluated by comparing it with negative controls, as well as with the antibacterial activity of the parent compounds, [Cip][HCl] and [Mox][HCl]. […] These values are determined through laboratory testing and can vary depending on the testing methodology and conditions, thus the range increase in this study to 25 mg·L^−1. Stock solutions were prepared using water for water-soluble compounds while non-water soluble compounds were reconstituted using a deionized water solution containing 5% DMSO [96]. Following that, the compounds were diluted using fresh tryptic soy broth (TSB) to achieve desired concentrations. Initially, agar media was used to grow additional bacteria to correlate absorbance readings to microbial counts. Then, a solution of 0.1 mL of S. aureus added to 10 mL of TSB was incubated at 37 °C for 24 h and repeated for three more days until enough bacteria was obtained. After centrifugation and washing steps with PBS (1×) solution until obtaining a homogenized pellet, the inoculum was then diluted to 0.06 absorbance at 630 nm or 0.5 McFarland [97]. After compounds were diluted in TSB, 100 μL of samples with 100 μL of S. aureus inoculum were then transferred to a 96-well flat bottom microtitre plate (TPP, Switzerland) which was sealed and left in incubation at 37 °C for 24 h. Absorbance was read at 630 nm with a BioTek universal microplate reader (Agilent Technologies, VT, USA) to determine the turbidity in the wells [97, 98]. Three wells were prepared per sample. To ensure the viability and growth of bacteria in the culture media, negative controls were conducted along with a positive culture using the media containing only the bacteria. [Cip][HCl] served as the reference antibacterial agent.

[4] = test system: L929 mouse fibroblast cells; experiment: Cytotoxicity evaluation, resazurin reduction assay; assay type: cell-based; settings: 24 h exposure
Experimental: To assess the impact of GUMBOS on cell viability, the resazurin assay was employed using L929 mouse fibroblast cells as described previously by Page et al.. The L929 cells were cultured at 37 °C in a 5% CO2 atmosphere, utilizing DMEM supplemented with 10% FBS and 1% streptomycin/gentamycin. Once the cell culture reached 70–80% confluence, it was detached using a 0.25% (w/v) trypsin-ethylenediaminetetraacetic acid (EDTA) solution. The cells were then subjected to centrifugation with the Heraeus Multifuge X1R centrifuge (Thermo Fisher Scientific; Waltham, MA, USA) and resuspended in fresh medium. Viable cell counts were obtained through a Neubauer chamber (Improved Neubauer Bright-Line, Boeco; Hamburg, Germany).
For experiments, L929 cells were seeded at a density of 5 × 10^4 cells per well in 96-well microplates and supplemented with DMEM medium. Plates were placed in a humidified incubator at 37 °C with 5% CO2 for 24 h to allow cell attachment and growth. Subsequently, the culture medium was replaced with different concentrations of each sample being tested. After 24h incubation, the medium was replaced with fresh culture medium containing 10% resazurin. Cells were then incubated for 4 h in the dark at 37 °C with 5% CO2 to allow resazurin conversion. Fluorescence of resorufin was measured using a plate reader (Synergy HT plate reader-Biotek Instruments, Winooski, VT, USA) with excitation at 560 nm and emission at 590 nm. Negative control wells contained only culture medium, while positive control wells contained the cation precursor, the active pharmaceutical ingredient. All experiments were conducted in triplicate.

E. coli O157:H7 = test system: E. coli O157:H7; parameters: method as in PMID 23447139; settings: same E. coli O157:H7 strain; cited from earlier work
[5] = cited from earlier work
E. coli = test system: E. coli; parameters: method as in earlier work; settings: cited from earlier work
S. aureus [6] = test system: S. aureus; parameters: method as in earlier work; settings: cited from earlier work
S. aureus [7] = settings: cited from earlier work
[8] = 50 mg·L^−1 (highest concentration)

SMILES | Tonset [2] [°C] | Residue at 500 °C [2] [%] | Tpeak [2] [°C] | Tstart [2] [°C] | cytotoxicity to L929 cells (cell viability) [4, 8] | other results
C[C@H](CCC(=O)O)[C@H]1CC[C@H]2[C@@H]3CC[C@@H]4C[C@H](O)CC[C@]4(C)[C@H]3C[C@H](O)[C@]12C.O=C(O)c1cn(C2CC2)c2cc(N3CCNCC3)c(F)cc2c1=O [[Cip][Dxc]] | 326.23 | 19.75 | 332.30 | 211.93 | some levels of cell toxicity; also recorded: slight toxicity | logKO/W ± SD [1]: −1.110 ± 0.018; relative hydrophobicity from log KO/W ([1]; ranking within the [Cip]-based or [Mox]-based GUMBOS): most hydrophilic; antibacterial performance (bacterial growth) against S. aureus ([3]; 0.25 mg·L^−1, 24 h exposure, Figure 4a): least antimicrobial agent of all tested samples; antibacterial performance (bacterial growth) against S. aureus ([3]; 25 mg·L^−1, 24 h exposure, Figure 4b): significant differences from their corresponding precursors; also recorded: least antimicrobial agent of all tested samples
CC1(C)SC2C(NC(=O)C(N)c3ccccc3)C(=O)N2C1C(=O)O.CC1(C)SC2C(NC(=O)C(N)c3ccccc3)C(=O)N2C1C(=O)O.N=C(NCCCCCCNC(=N)NC(=N)Nc1ccc(Cl)cc1)NC(=N)Nc1ccc(Cl)cc1 [chlorhexidine di-ampicillin] | – | – | – | – | – | concentrations at which growth was inhibited (E. coli O157:H7): 0.06 to 0.12 mg/L
COc1c(N2C[C@@H]3CCCN[C@@H]3C2)c(F)cc2c(=O)c(C(=O)O)cn(C3CC3)c12 [[Mox], moxifloxacin] | – | – | – | – | – | logKO/W [5]: −0.28; epidemiologic cutoff value (ECOFF) (E. coli): 0.25 mg·L^−1; epidemiologic cutoff value (ECOFF) (S. aureus [6]): 0.25 mg·L^−1; MIC (S. aureus [7]): 0.032 to 2 µg/mL
O=C(O)c1cn(C2CC2)c2cc(N3CCNCC3)c(F)cc2c1=O [[Cip], ciprofloxacin] | – | – | – | – | – | logKO/W [5]: −0.13; epidemiologic cutoff value (ECOFF) (E. coli): 0.06 mg·L^−1; epidemiologic cutoff value (ECOFF) (S. aureus [6]): 2 mg·L^−1
O=C(O)c1cn(C2CC2)c2cc(N3CC[NH2+]CC3)c(F)cc2c1=O.c1ccc([B-](c2ccccc2)(c2ccccc2)c2ccccc2)cc1 [[Cip][TPB]] | 117.85 | 36.93 | 122.95 | 98.94 | some levels of cell toxicity | logKO/W ± SD [1]: −0.464 ± 0.006
c1ccc([B-](c2ccccc2)(c2ccccc2)c2ccccc2)cc1 [[Na][TPB], sodium tetraphenylborate, reference compound] | – | – | – | – | – | cytotoxicity to L929 cells (cell viability) ([4]; two highest concentrations (25 and 50 mg·L^−1)): cytotoxic
COc1c(N2C[C@@H]3CCCN[C@@H]3C2)c(F)cc2c(=O)c(C(=O)O)cn(C3CC3)c12.O=S(=O)(NS(=O)(=O)C(F)(F)F)C(F)(F)F [[Mox][NTF2]] | 319.64 | 24.57 | 327.51 | 297.72 | slight toxicity | –
